# In patent publication US11464733B2, “Enema for rectal application” (Dr. Falk Pharma GmbH, priority 2016, dated 2022):
# How the values were obtained:
# [1] = test system: patients with active ulcerative colitis; assay: Placebo-controlled double-blind trial: mucosal endoscopy, MMDAI endoscopic finding score; type: in vivo, human; conditions: for Number of subjects with MMDAI endoscopic finding score 0 / Number of subjects with MMDAI endoscopic finding score 1 / Number of subjects with MMDAI endoscopic finding score 2 / Number of subjects with MMDAI endoscopic finding score 3 / Percentage of subjects with MMDAI endoscopic finding score 0 / Percentage of subjects with MMDAI endoscopic finding score 1 / Percentage of subjects with MMDAI endoscopic finding score 2 / Percentage of subjects with MMDAI endoscopic finding score 3: 2 mg rectal foam twice a day, 20 cases
# Description: Placebo-controlled randomized double-blind multicenter collaborative parallel group comparison test
# (§1) Superiority of the budesonide compared with placebo for mucosal healing as the primary endpoint are investigated for patients with active ulcerative colitis when budesonide 2 mg is rectally administered twice a day for 6 weeks by a double-blind comparative study with placebo as a control, and the safety thereof was investigated.
# (§2) Furthermore, the efficacy and safety of administering were investigated, to patients with inflammatory bowel disease who have been administered 1.5 to 2.5 mg of budesonide twice a day for 6 weeks and shown signs of healing but no mucous membrane healing, 1.5 to 2.5 mg of budesonide twice a day for an additional 6 weeks (for a total of 12 weeks) (clinical trial number: Japic CTI—142704).
# For the trial, an aerosol with fixed dose injection type for rectal injection (rectal foaming agent) is used as a test drug, in which 25 mL (1.35 g) of white creamy foam containing 2 mg of budesonide is released by one injection. As a remission induction therapeutic agent of ulcerative colitis in active phase where the lesion is confined to the rectum and sigmoid colon, the aerosol for rectal injection is approved in Europe at a dosage and dose of budesonide 2 mg once a day (trade name: Budenofalk 2 mg/dose rectal foam, manufactured by Dr. Falk Pharma GmbH).
# The subjects are ulcerative colitis patients in active phase, and are divided into a group administered the test drug twice a day (hereafter, the budesonide-administered group), and a group administered the control drug (hereinafter, the placebo group).
# (§3) The test drug or control drug is rectally administered twice a day (once in the morning and once in the evening), after defecation, if possible. The number of injections per dose is one, the administration period is 6 weeks, if no mucous membrane healing occurred (an endoscope view score of 0 points), an administration period of 12 weeks can be used, and the drug is administered until the evening before the evaluation. The dose of budesonide in each group is 4 mg/day for the twice a day group, and 0 mg/day for the placebo group. The subjects with a 12-week administration period included 20 subjects in the budesonide administered group, and 18 subjects in the placebo group.
# The score by the doctor was used for the initial test, and after an administration period of 6 weeks, whether the prescription was continued for 6 more weeks or not. The score by the central judgment committee was used as the judgement of effectiveness. […] Furthermore, the change of the endoscope finding score from 6th week to 12th week of each subject of placebo group is shown in Table 2, and the change in the endoscope finding score from 6th week to 12th week of each subject of the budesonide-administered group is shown in Table 3.
# [2] = test system: patients with active ulcerative colitis; assay: Same trial: safety, adverse events; type: in vivo, human
# Description: as §1, §2, §3
# [3] = test system: serous cortisol; assay: Same trial: blood biochemistry check, serous cortisol density; type: in vivo, human
# [4] = test system: serous ACTH (adrenocorticotropic hormone); assay: Same trial: blood biochemistry check, serous ACTH density; type: in vivo, human
# [5] = test system: acidophilic leucocyte; assay: Same trial: hematology checks, leukocyte fractionation; type: in vivo, human
# [6] = cited from earlier work
# [7] = 0 week (before administration), 12-week subjects
# [8] = Table 3 total over 6th week scores, of 20
# [9] = Table 3 total over 6th week scores, unmeasured listed separately, of 20
# [10] = change from 6th to 12th week, 2 mg twice a day, of 20
# [11] = 0th week (before prescription), 20 cases analysed
# [12] = 12th week (prescription end), 19 cases analysed
# [13] = After observation, 20 cases analysed
smiles,measurement,setting,value
"CCCC1O[C@@H]2C[C@H]3[C@@H]4CCC5=CC(=O)C=C[C@]5(C)[C@H]4[C@@H](O)C[C@]3(C)[C@]2(C(=O)CO)O1 (mixture of isomers) [Budesonide, (+)-[(RS)-16α,17α-Butylidenedioxy-11β,21-dihydroxy-1,4-pregnadiene-3,20-dione]]",Number of subjects with MMDAI endoscopic finding score 0,[1]; [7],0 subjects
same,Number of subjects with MMDAI endoscopic finding score 1,[1]; [7],3 subjects
same,Number of subjects with MMDAI endoscopic finding score 2,[1]; [7],16 subjects
same,Number of subjects with MMDAI endoscopic finding score 3,[1]; [7],1 subjects
same,Percentage of subjects with MMDAI endoscopic finding score 0,[1]; [7],(0.0) %
same,Percentage of subjects with MMDAI endoscopic finding score 1,[1]; [7],(15.0) %
same,Percentage of subjects with MMDAI endoscopic finding score 2,[1]; [7],(80.0) %
same,Percentage of subjects with MMDAI endoscopic finding score 3,[1]; [7],(5.0) %
same,"Percentage with an endoscope view score of 0 in the 12th week, except for non-measured group","[1]; 6/15 examples, placebo 0% (0/13), administration continued for 6 more weeks",40.0%
same,Number of subjects with MMDAI endoscopic finding score 0,"[1]; 6th week, 12-week subjects",4 subjects
same,Number of subjects with MMDAI endoscopic finding score 1,"[1]; 6th week, 12-week subjects",14 subjects
same,Number of subjects with MMDAI endoscopic finding score 2,"[1]; 6th week, 12-week subjects",2 subjects
same,Number of subjects with MMDAI endoscopic finding score 3,"[1]; 6th week, 12-week subjects",0 subjects
same,Percentage of subjects with MMDAI endoscopic finding score 1,"[1]; 6th week, 12-week subjects",(70.0) %
same,Number of subjects with MMDAI endoscopic finding score 0,[1]; 12th week (Table 1),6 subjects
same,Number of subjects with MMDAI endoscopic finding score 1,[1]; 12th week (Table 1),8 subjects
same,Number of subjects with MMDAI endoscopic finding score 2,[1]; 12th week (Table 1),6 subjects
same,Number of subjects with MMDAI endoscopic finding score 3,[1]; 12th week (Table 1),0 subjects
same,Percentage of subjects with MMDAI endoscopic finding score 0,[1]; 12th week (Table 1),(30.0) %
same,Percentage of subjects with MMDAI endoscopic finding score 1,[1]; 12th week (Table 1),(40.0) %
same,Percentage of subjects with MMDAI endoscopic finding score 2,[1]; 12th week (Table 1),(30.0) %
same,Percentage of subjects with MMDAI endoscopic finding score 3,[1]; 12th week (Table 1),(0.0) %
same,"Number of subjects, 12th week Unmeasured, Total",[1]; [8],5 subjects
same,"Percentage of subjects, 12th week Unmeasured, Total",[1]; [8],(25.0) %
same,"Number of subjects, endoscope finding score 12th week 0, Total",[1]; [9],6 subjects
same,"Number of subjects, endoscope finding score 12th week 1, Total",[1]; [9],7 subjects
same,"Number of subjects, endoscope finding score 12th week 2, Total",[1]; [9],2 subjects
same,"Number of subjects, endoscope finding score 12th week 3, Total",[1]; [9],0 subjects
same,"Percentage of subjects, endoscope finding score 12th week 0, Total",[1]; [9],(30.0) %
same,"Percentage of subjects, endoscope finding score 12th week 1, Total",[1]; [9],(35.0) %
same,"Percentage of subjects, endoscope finding score 12th week 2, Total",[1]; [9],(10.0) %
same,"Percentage of subjects, endoscope finding score 12th week 3, Total",[1]; [9],(0.0) %
same,"Number of subjects, endoscope finding score 6th week 0 / 12th week 0",[1]; [10],0 subjects
same,"Number of subjects, endoscope finding score 6th week 0 / 12th week 1",[1]; [10],1 subjects
same,"Number of subjects, endoscope finding score 6th week 0 / 12th week 2",[1]; [10],0 subjects
same,"Number of subjects, endoscope finding score 6th week 0 / 12th week 3",[1]; [10],0 subjects
same,"Number of subjects, endoscope finding score 6th week 0 / 12th week Unmeasured",[1]; [10],3 subjects
same,"Number of subjects, endoscope finding score 6th week 1 / 12th week 0",[1]; [10],5 subjects
same,"Number of subjects, endoscope finding score 6th week 1 / 12th week 1",[1]; [10],6 subjects
same,"Number of subjects, endoscope finding score 6th week 1 / 12th week 2",[1]; [10],1 subjects
same,"Number of subjects, endoscope finding score 6th week 1 / 12th week 3",[1]; [10],0 subjects
same,"Number of subjects, endoscope finding score 6th week 1 / 12th week Unmeasured",[1]; [10],2 subjects
same,"Number of subjects, endoscope finding score 6th week 2 / 12th week 0",[1]; [10],1 subjects
same,"Number of subjects, endoscope finding score 6th week 2 / 12th week 1",[1]; [10],0 subjects
same,"Number of subjects, endoscope finding score 6th week 2 / 12th week 2",[1]; [10],1 subjects
same,"Number of subjects, endoscope finding score 6th week 2 / 12th week 3",[1]; [10],0 subjects
same,"Number of subjects, endoscope finding score 6th week 2 / 12th week Unmeasured",[1]; [10],0 subjects
same,"Number of subjects, endoscope finding score 6th week 3 / 12th week 0",[1]; [10],0 subjects
same,"Number of subjects, endoscope finding score 6th week 3 / 12th week 1",[1]; [10],0 subjects
same,"Number of subjects, endoscope finding score 6th week 3 / 12th week 2",[1]; [10],0 subjects
same,"Number of subjects, endoscope finding score 6th week 3 / 12th week 3",[1]; [10],0 subjects
same,"Number of subjects, endoscope finding score 6th week 3 / 12th week Unmeasured",[1]; [10],0 subjects
same,"Percentage of subjects, endoscope finding score 6th week 0 / 12th week 0",[1]; [10],0.0%
same,"Percentage of subjects, endoscope finding score 6th week 0 / 12th week 1",[1]; [10],5.0%
same,"Percentage of subjects, endoscope finding score 6th week 0 / 12th week 2",[1]; [10],0.0%
same,"Percentage of subjects, endoscope finding score 6th week 0 / 12th week 3",[1]; [10],0.0%
same,"Percentage of subjects, endoscope finding score 6th week 0 / 12th week Unmeasured",[1]; [10],15.0%
same,"Percentage of subjects, endoscope finding score 6th week 1 / 12th week 1",[1]; [10],(30.0) %
same,"Percentage of subjects, endoscope finding score 6th week 1 / 12th week 3",[1]; [10],(0.0) %
same,"Percentage of subjects, endoscope finding score 6th week 1 / 12th week Unmeasured",[1]; [10],(10.0) %
same,"Percentage of subjects, endoscope finding score 6th week 2 / 12th week 0",[1]; [10],5.0%
same,"Percentage of subjects, endoscope finding score 6th week 2 / 12th week 1",[1]; [10],0.0%
same,"Percentage of subjects, endoscope finding score 6th week 2 / 12th week 2",[1]; [10],5.0%
same,"Percentage of subjects, endoscope finding score 6th week 2 / 12th week 3",[1]; [10],0.0%
same,"Percentage of subjects, endoscope finding score 6th week 2 / 12th week Unmeasured",[1]; [10],0.0%
same,"Percentage of subjects, endoscope finding score 6th week 3 / 12th week 0",[1]; [10],0.0%
same,"Percentage of subjects, endoscope finding score 6th week 3 / 12th week 1",[1]; [10],0.0%
same,"Percentage of subjects, endoscope finding score 6th week 3 / 12th week 2",[1]; [10],0.0%
same,"Percentage of subjects, endoscope finding score 6th week 3 / 12th week 3",[1]; [10],0.0%
same,"Percentage of subjects, endoscope finding score 6th week 3 / 12th week Unmeasured",[1]; [10],0.0%
same,"Death, severe adverse events or serious adverse event",[2]; 12 week administration,"no death, severe adverse events or serious adverse event, were observed"
same,Tolerability,"[2]; budesonide 2 mg, rectal administration twice a day for 6 weeks (so in the source), patients of ulcerative colitis",acceptable
same,Manifestation of adverse events as a result of the drug tested,[2]; versus placebo group,couldn't admit between Placebo group
same,Manifested frequency of the adverse event,[2]; versus placebo group,higher than in the placebo group
same,Serous cortisol: applicable examples (cases below standard value),[3]; [11],0
same,Serous cortisol: percentage of cases below standard value,[3]; [11],0.0%
same,Serous cortisol: percentage of cases below standard value,"[3]; 0th week (before prescription), 20 cases analysed, listed as budesonide",0%
same,Serous cortisol density,[3]; 6th week and 12th week versus 0th week (before prescription),low compared with the 0th week
same,Serous cortisol: applicable examples (cases below standard value),[3]; [12],11
same,Serous cortisol: percentage of cases below standard value,[3]; [12],57.9%
same,Serous cortisol: applicable examples (cases below standard value),[3]; [13],2
same,Serous cortisol: percentage of cases below standard value,[3]; [13],10.0%
same,Recovery of subjects with both serous cortisol and serous ACTH density below the standard value in the 12th week,[3]; by the after observation,mostly recovered to within the standard value
same,Serous cortisol density after end of administration,[3]; observed for 2-4 weeks after the end of the 12-week administration period,reverting to the value in the 0th week
same,Serous ACTH: applicable examples (cases below standard value),[4]; [11],3
same,Serous ACTH: percentage of cases below standard value,[4]; [11],15.0%
same,Serous ACTH: applicable examples (cases below standard value),[4]; [12],8
same,Serous ACTH: percentage of cases below standard value,[4]; [12],42.1%
same,Serous ACTH: applicable examples (cases below standard value),[4]; [13],2
same,Serous ACTH: percentage of cases below standard value,[4]; [13],10.0%
same,Percentage of the acidophilic leucocyte of leukocyte fractionation,[5]; 4th week to 12th week compared with 0th week and placebo group,decrease
same,Other items of hematology and blood biochemistry checks,[5]; in vivo,no clear fluctuation in other items could be seen
same,Solubility in water,[6],low solubility in water
